The results in this text go back to publication PMC12951562, “SH2scan: Mapping SH2 Domain-Ligand Binding Selectivity for Inhibitors and Degraders” (Journal of Medicinal Chemistry, 2026).

Each structure is given as a SMILES string. “And” between values parts separate entries of the source, which are not always exact repeats. Identical values can stand only once. Like-named read-outs stand apart in the source and are kept apart here. Non-standard residues stand in square brackets, D forms with d. Residues, ends and D or L forms follow the SMILES beside them. pY = N[C@@H](Cc1ccc(OP(=O)(O)O)cc1)C(=O)O

What all share (experiment): biochemical
Common to all, as to format: binding

Test [1] addresses T1, ABL2 (Homo sapiens, UniProt P42684).
T1 construct: the DNA-tagged SH2 domain concentrations used in this study were <0.1 nM; made in house; host or cells: HEK293 (transient transfection; unpurified extract)
T1 sequence (P42684 173-263 limits assumed): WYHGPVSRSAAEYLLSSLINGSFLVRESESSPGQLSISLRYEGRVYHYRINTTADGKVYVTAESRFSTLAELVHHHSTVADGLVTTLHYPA

Test [2] has as its target T2, CSK (Homo sapiens, UniProt P41240).
T2 construct: the DNA-tagged SH2 domain concentrations used in this study were <0.1 nM; made in house; host or cells: HEK293 (transient transfection; unpurified extract)
T2 sequence (P41240 82-171 limits assumed): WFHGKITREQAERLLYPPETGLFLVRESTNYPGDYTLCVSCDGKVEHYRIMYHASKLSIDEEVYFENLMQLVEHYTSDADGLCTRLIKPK
The settings on record: primary screen, 10 μM.

Test [3] has as its target T3, HSH2D (Homo sapiens, UniProt Q96JZ2).
T3 construct: the DNA-tagged SH2 domain concentrations used in this study were <0.1 nM; made in house; host or cells: HEK293 (transient transfection, unpurified extract)
T3 sequence (Q96JZ2 34-125 limits assumed): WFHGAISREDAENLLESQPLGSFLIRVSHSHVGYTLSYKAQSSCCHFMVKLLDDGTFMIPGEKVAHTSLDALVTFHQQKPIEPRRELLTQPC

For test [4], the target named is T4, MATK (Homo sapiens, UniProt P42679).
T4 construct: the DNA-tagged SH2 domain concentrations used in this study were <0.1 nM; made in house; host or cells: HEK293 (transient transfection, unpurified extract)
T4 sequence (P42679 122-211 limits assumed): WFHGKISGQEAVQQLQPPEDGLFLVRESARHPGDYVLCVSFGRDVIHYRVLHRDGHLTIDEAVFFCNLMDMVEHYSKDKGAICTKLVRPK

Test [5] addresses T5, PLCG2(SH2dom.C-term.) (Homo sapiens, UniProt P16885).
T5 construct: SH2dom.C-term. denotes SH2 domain closest to C-terminus of protein; made in house; host or cells: HEK293 (transient transfection, unpurified extract)
T5 sequence (P16885 646-735 limits assumed): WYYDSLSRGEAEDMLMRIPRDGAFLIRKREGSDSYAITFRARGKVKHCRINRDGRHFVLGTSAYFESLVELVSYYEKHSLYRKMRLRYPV
The settings on record: for remaining activity at 10 µM: read-out: percent of DMSO vehicle control.

The target in test [6] is T6, PLCG2(SH2dom.N-term.) (Homo sapiens, UniProt P16885).
T6 construct: SH2dom.N-term. denotes SH2 domain closest to N-terminus of protein; made in house; host or cells: HEK293 (transient transfection, unpurified extract)
T6 sequence (P16885 532-635 limits assumed): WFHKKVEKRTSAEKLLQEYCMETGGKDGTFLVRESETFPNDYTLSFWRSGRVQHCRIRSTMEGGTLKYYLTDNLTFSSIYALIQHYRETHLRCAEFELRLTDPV
The settings on record: for remaining activity at 10 µM: read-out: percent of DMSO vehicle control.

Test [7] addresses T7, SH2B (SH2B1) (Homo sapiens, UniProt Q9NRF2).
T7 construct: made in house; host or cells: HEK293 (transient transfection), unpurified extract
As to conditions: for remaining activity at 10 µM: read-out: percent of DMSO vehicle control.

Test [8] addresses T8, SHIP1 (Homo sapiens, UniProt Q92835).
T8 construct: made in house; host or cells: HEK293 (transient transfection), unpurified extract
T8 sequence (Q92835 1-1189): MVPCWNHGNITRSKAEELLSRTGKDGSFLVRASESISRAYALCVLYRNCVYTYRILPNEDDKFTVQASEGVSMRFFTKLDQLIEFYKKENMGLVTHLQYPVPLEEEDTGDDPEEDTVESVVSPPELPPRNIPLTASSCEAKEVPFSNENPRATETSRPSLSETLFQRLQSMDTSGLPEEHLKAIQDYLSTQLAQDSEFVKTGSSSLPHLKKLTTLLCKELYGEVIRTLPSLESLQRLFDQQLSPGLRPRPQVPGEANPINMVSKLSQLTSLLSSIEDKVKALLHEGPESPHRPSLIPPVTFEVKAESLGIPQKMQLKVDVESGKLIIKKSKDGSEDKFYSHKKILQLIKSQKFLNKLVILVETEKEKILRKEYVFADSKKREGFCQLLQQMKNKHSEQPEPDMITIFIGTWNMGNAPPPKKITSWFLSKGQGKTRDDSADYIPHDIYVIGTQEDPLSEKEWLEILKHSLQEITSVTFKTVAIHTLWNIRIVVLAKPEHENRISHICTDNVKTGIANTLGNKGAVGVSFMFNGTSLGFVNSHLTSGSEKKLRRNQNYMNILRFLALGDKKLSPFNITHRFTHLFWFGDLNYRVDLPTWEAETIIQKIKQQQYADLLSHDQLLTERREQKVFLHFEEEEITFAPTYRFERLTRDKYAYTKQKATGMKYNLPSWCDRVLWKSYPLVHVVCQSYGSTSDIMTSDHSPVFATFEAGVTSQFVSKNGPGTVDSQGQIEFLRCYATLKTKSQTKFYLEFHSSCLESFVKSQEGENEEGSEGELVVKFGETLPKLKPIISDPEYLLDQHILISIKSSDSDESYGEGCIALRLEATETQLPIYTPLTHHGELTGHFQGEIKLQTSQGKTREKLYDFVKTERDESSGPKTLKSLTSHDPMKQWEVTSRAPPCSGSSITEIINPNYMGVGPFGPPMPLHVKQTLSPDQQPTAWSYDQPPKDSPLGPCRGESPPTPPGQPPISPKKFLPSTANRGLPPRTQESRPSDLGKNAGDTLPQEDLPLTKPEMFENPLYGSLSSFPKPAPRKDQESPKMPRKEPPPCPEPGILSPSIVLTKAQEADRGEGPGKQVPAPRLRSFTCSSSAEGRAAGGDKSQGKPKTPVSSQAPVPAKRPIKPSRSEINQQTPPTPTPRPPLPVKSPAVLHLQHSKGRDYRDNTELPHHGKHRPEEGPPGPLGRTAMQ
The settings on record: primary screen, 10 μM.

Test [9] addresses T9, SOCS2 (Homo sapiens, UniProt O14508).
T9 construct: made in house; host or cells: HEK293 (transient transfection), unpurified extract
T9 sequence (O14508 1-198): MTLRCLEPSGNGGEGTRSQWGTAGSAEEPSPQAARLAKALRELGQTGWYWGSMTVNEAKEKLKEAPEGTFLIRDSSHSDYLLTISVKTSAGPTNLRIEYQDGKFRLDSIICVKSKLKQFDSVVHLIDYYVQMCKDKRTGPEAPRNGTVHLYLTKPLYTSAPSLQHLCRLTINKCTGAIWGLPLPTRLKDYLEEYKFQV
As to conditions: for remaining activity at 10 µM: read-out: percent of DMSO vehicle control.

The target in test [10] is T10, STAT2 (Homo sapiens, UniProt P52630).
T10 construct: made in house; host or cells: HEK293 (transient transfection), unpurified extract
As to conditions: for Kd: dose-response.

Test [11] concerns the target T11, YES (Homo sapiens, UniProt P07947).
T11 construct: the DNA-tagged SH2 domain concentrations used in this study were <0.1 nM; made in house; host or cells: HEK293 (transient transfection; unpurified cell extract)
The settings on record: for remaining activity at 10 µM: read-out: percent of DMSO vehicle control.

Setting [12] is: read-out: percent of DMSO vehicle control.
The mark [13] stands for this setting: primary screen, 10 μM, read-out: percent of DMSO vehicle control.

T10 sequence (P52630 whole entry): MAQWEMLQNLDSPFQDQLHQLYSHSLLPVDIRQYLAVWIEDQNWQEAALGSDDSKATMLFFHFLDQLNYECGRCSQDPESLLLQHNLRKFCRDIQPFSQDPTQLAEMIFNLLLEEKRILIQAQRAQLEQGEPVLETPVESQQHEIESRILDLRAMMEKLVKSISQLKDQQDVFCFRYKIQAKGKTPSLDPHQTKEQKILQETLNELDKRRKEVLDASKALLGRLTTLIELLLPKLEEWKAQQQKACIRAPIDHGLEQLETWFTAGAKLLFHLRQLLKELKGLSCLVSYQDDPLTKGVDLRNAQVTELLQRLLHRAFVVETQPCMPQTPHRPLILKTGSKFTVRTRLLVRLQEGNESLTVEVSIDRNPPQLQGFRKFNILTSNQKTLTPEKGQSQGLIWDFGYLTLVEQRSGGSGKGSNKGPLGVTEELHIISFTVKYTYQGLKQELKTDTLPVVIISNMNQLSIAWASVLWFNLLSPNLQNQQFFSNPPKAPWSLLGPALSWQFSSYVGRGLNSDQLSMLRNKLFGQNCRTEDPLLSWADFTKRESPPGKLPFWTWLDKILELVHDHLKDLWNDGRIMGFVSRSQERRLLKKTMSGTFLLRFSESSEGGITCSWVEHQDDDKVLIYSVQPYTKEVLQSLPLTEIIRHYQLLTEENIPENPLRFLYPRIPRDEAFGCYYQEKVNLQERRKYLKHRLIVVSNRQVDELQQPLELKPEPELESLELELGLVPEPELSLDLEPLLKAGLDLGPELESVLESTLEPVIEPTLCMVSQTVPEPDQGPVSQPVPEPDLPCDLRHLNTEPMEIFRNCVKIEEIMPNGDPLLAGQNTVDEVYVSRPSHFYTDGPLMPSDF
T11 sequence (P07947 158-255 limits assumed): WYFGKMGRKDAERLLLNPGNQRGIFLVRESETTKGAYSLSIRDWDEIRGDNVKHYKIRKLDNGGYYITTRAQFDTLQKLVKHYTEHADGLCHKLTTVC

A word on the Kd: it is the constant that tells how readily two partners part at equilibrium. In the case of `NC(=O)CC[C@H](NC(=O)[C@@H]1CC[C@@H]2CCN(C(=O)CCCCCC#Cc3cccc4c3CN(C3CCC(=O)NC3=O)C4=O)C[C@H](NC(=O)c3cc4cc(C(F)(F)P(=O)(O)O)ccc4[nH]3)C(=O)N21)C(=O)NC(c1ccccc1)c1ccccc1` (some centres unmarked) [SD-36], the percent of DMSO vehicle control at 10 µM in [1] (setting [12]) amounted to 126%; in [3] (setting [12]) it was 72.7 ± 14.5%; in test [4] (setting [12]), 159 ± 5.1%; in [10] (setting [12]) it was 0.1 ± 1.3%. Also, the figures for the “percent of DMSO vehicle control” value in test [2] and in test [8] were 97.3±14.8% and 44.1±5.9%, respectively. The remaining activity at 10 µM in test [5] was 86.3 ± 12.4%; in [6] it was 73.8 ± 3.7%; in test [7] it was 68.4 ± 0.4%; in [9] it was 98.5 ± 5.4%; in [11], 73.3 ± 11.9%. The Kd in test [10] is 450 nM and 454 nM.
As for `CC(C)(C)[C@H](NC(=O)/C=C/c1ccc(OP(=O)(O)O)cc1)C(=O)N1CCC[C@H]1C(=O)N(c1ccccc1)c1ccc(I)cc1` [STAT6-IN-3], the remaining activity at 10 µM in test [1] (setting [13]) amounted to 108 ± 3.5%; in test [3] (setting [13]) it was 19.6 ± 29.7%; in test [4] (setting [13]) it was 70.3 ± 45.8%; in [5] (primary screen, 10 μM) it was 75.3 ± 10%; in [6] (primary screen, 10 μM), 51.6 ± 17.6%; in test [7] (primary screen, 10 μM) it was 78.1 ± 4.8%. In addition, the remaining activity at 10 µM in [9] (primary screen, 10 μM) is 7.9 ± 50.6%; in test [10] (setting [13]), 60.3 ± 12.5%; in test [11] (primary screen, 10 μM), 37.7 ± 27.8%. In addition, the “percent of DMSO vehicle control” value in test [2] amounted to 65.2±5.7%; in test [8], 53.7±3.2%. Besides, the Kd is 7600 ± 1600 nM in test [3] (dose-response, read-out: KD); 1010 ± 13 nM in [9] (dose-response, read-out: KD); 510 ± 83 nM in test [10] (read-out: KD).
Take `CC[C@H](C)[C@H](NC(=O)[C@H](CCC(=O)O)NC(=O)[C@H](CCC(=O)O)NC(=O)[C@H](Cc1ccc(OP(=O)(O)O)cc1)NC(C)=O)C(=O)N[C@@H](CCC(=O)O)C(N)=O` [Ac-pYEEIE-NH2] (Ac-[pY]EEIE-NH2): the “percent of DMSO vehicle control” value turned out to be 110.7% in [1] (primary screen, 10 μM); 106.4% in [2]; 127.4% in test [3] (primary screen, 10 μM); 197.1% in test [4] (primary screen, 10 μM); 90.9% in test [5] (primary screen, 10 μM); 92.3±3.3% in test [6] (primary screen, 10 μM). Also, the “percent of DMSO vehicle control” value came to 126.6% in test [7] (primary screen, 10 μM); 79.4±1.4% in test [8]; 104.8% in test [9] (primary screen, 10 μM); 53.6±1.3% in test [10] (primary screen, 10 μM); 14.2±1.5% in test [11] (primary screen, 10 μM). The molecule further showed a Kd in [11] of 3800 nM.
